Series [1] is described as follows: Metabolic stability, dog liver microsomes. The note with it: dog, microsomes, pH 7.4.
Series [2] is described as follows: Metabolic stability, rat liver microsomes. Conditions: rat, microsomes, pH 7.4. (In general: Microsomes from liver hold many membrane-bound enzymes, among them those of drug oxidation.)
Series [3] can be described thus: Metabolic stability, human liver microsomes.
A short description of series [4]: Metabolic stability, mouse liver microsomes. Conditions: mouse, microsomes, pH 7.4.
Series [5] can be described thus: Metabolic stability, monkey liver microsomes. The note with it: monkey, microsomes, pH 7.4.
Series [6] concerns Salmonella typhimurium (ATCC 13311). Conditions: for MIC Salmonella typhimurium: ATCC 13311.
Series [7] deals with Staphylococcus aureus Methicillin/Gentamicin/Tetracycline Resistant (ATCC 33592). The note with it: for MIC Staphylococcus aureus ME/GM/TC resistant: Minimal Inhibitory Concentration, tested at 100-0.1 in 1% DMSO; for Minimum Inhibitory Concentration Staphylococcus aureus ME/GM/TC resistant: in vitro MIC, tested at 100, 30, 10, 3, 1, 0.3 and 0.1 μM in 1% DMSO.
For series [8], the system named is Mycobacterium ranae (ATCC 110). Conditions: for MIC Mycobacterium ranae / Minimum Inhibitory Concentration Mycobacterium ranae: ATCC 110.
For series [9], the system named is Bacillus subtillis (ATCC 43223). Conditions: for MIC Bacillus Subtillis: ATCC 43223.
Series [10] in a line: in vitro. Conditions: human, microsomes, pH 7.4.
Series [11] can be described thus: in vitro. Conditions: monkey, microsomes, pH 7.4.
The nature of series [12]: in vitro. Conditions: dog, microsomes, pH 7.4.
Series [13] is described as follows: in vitro. The note with it: rat, microsomes, pH 7.4.
Series [14] can be described thus: in vitro. The note with it: mouse, microsomes, pH 7.4.
The test system of the next series is mouse cutaneous injury. Description: Mouse skin wound healing model. Type of series: in vivo, CD-1 derived male mice. Conditions: topical once daily for 10 days; test substances 100 μg/mouse, CGS-21680 10 μg/mouse. How it is done:
In-vivo assays: Selected compounds were evaluated in an in-vivo mouse skin wound healing model by MDS Pharma Services using the following protocol. Groups of CD-1 derived male mice (n=5) weighting 24±2 g were used. Under hexobarbitol (90 mg/kg, IP) anesthesia, the shoulder and back region of each animal was shaved. A sharp punch (ID 12 mm) was applied to remove the skin including panniculus carnosus and adherent tissues. […] The percent closure of the wound (%) was calculated, and wound half-closure time (CT50) was analyzed by linear regression using Graph-Prism (Graph Software USA). One-way ANOVA followed by Dunnett's test was applied for comparison between the treated and its corresponding vehicle groups at each measurement time point. Differences are considered statistically significant at P<0.05.^41

Values after ≈ are worked out from the molar mass of the structure shown. *1 amine or outer side, *2 acyl side, *3 side chain or, on linkers, in order; H or OH if unused. Where a SMILES comes first, the peptide text is derived from it. [ ]: non-standard residue; d: D form. ξ: configuration not given here. Oic = O=C(O)[C@@H]1C[C@@H]2CCCC[C@@H]2N1; Ethylenediamine = C(CN[*:2])N[*:1]; Tic = O=C(O)[C@@H]1Cc2ccccc2CN1; ξTic = O=C(O)C1Cc2ccccc2CN1; ξOic = O=C(O)C1CC2CCCCC2N1

With `C[C@]12CC[C@H]3[C@@H](CCC4=CC(=O)CC[C@@]43C)[C@@H]1CC[C@@H]2O` [Testosterone, testosterone, reference compound], the share remaining at 0.25 h, 1 μM is 85% in series [1]; 0% in [2]; 77% in series [3] (human, microsomes, pH 7.4); 3% in series [4]; 34% in series [5]. The share remaining at 0.5 h, 1 μM in series [1] was 62%; in series [2] it was 0%; in series [3] (human, microsomes, pH 7.4), 53%; in series [4], 0%; in [5], 11%. Besides, the amount remaining at 1 h, 1 μM in series [1] was 33%; in [3] (human, microsomes, pH 7.4) it was 29%; in series [5], 1%.
`CC(=O)NCC(=O)N[C@@H](Cc1ccccc1)C(=O)N1Cc2ccccc2CC1C(=O)N1C(C(=O)NCC(=O)N[C@@H](CCCCN)C(=O)N2Cc3ccccc3CC2C(=O)N2C(C(=O)NCC(=O)N[C@@H](Cc3ccccc3)C(=O)N3Cc4ccccc4CC3C(=O)N3C(C(=O)NCC(=O)N[C@@H](CCCCN)C(=O)N4Cc5ccccc5CC4C(=O)N[C@@H](CCCCN)C(=O)N[C@@H](CCCCN)C(=O)N[C@@H](CCCCN)C(=O)N[C@@H](CCCCN)C(=O)N[C@@H](CCCCN)C(N)=O)CC4CCCCC43)CC3CCCCC32)CC2CCCCC21` (stereo partly drawn) [FKAB-1Gi, Ac-GF-Tic-Oic-GK-Tic-Oic-GF-Tic-Oic-GK-Tic-KKKKK-CONH2] (Ac-GF[ξTic][ξOic]GK[ξTic][ξOic]GF[ξTic][ξOic]GK[ξTic]KKKKK-NH2): the “MIC Salmonella typhimurium” value in [6] is 10 µM (≈ 25.7 µg/mL). Further, in series [7], the “MIC Staphylococcus aureus ME/GM/TC resistant” value is 3.00 µM (≈ 7.71 µg/mL) and the “Minimum Inhibitory Concentration Staphylococcus aureus ME/GM/TC resistant” value came out at 3 µM. In series [8], the “MIC Mycobacterium ranae” value turned out to be 3.00 µM (≈ 7.71 µg/mL) and the “Minimum Inhibitory Concentration Mycobacterium ranae” value worked out at 3 µM. Further, the “MIC Bacillus Subtillis” value in series [9] came to 1.00 µM (≈ 2.57 µg/mL). Further, in the series with red blood cells, the “% hemolysis 100/25 μM (first value)” value turned out to be 24.9%/ and the “% hemolysis 100/25 μM (second value)” value was found to be 18.9%. The share remaining at 0.25 h, 1 μM in the series “in vitro [10]” was determined as 86%. Also, in “in vitro [11]”, the fraction remaining at 0.25 h, 1 μM was found to be 72%; the share remaining at 0.5 h, 1 μM stood at 75%; the amount remaining at 1 h, 1 μM was 99%. Further, in “in vitro [12]”, the amount remaining at 0.5 h, 1 μM amounted to 63% and the share remaining at 1 h, 1 μM came out at 79%. Besides, in the series “in vitro [13]”, the fraction remaining at 0.25 h, 1 μM was determined as 76%; the share remaining at 0.5 h, 1 μM was found to be 86%; the fraction remaining at 1 h, 1 μM worked out at 87%. In “in vitro [14]”, the fraction remaining at 0.25 h, 1 μM worked out at 77%; the amount remaining at 0.5 h, 1 μM was determined as 26%; the fraction remaining at 1 h, 1 μM came out at 15%.
With `CC(=O)CC(c1ccccc1)c1c(O)c2ccccc2oc1=O` (stereo not drawn) [Warfarin, warfarin, reference compound], the fraction remaining at 0.5 h, 1 μM in “in vitro [10]” was 97%; in “in vitro [11]”, 109%; in the series “in vitro [12]” it was 104%; in the series “in vitro [13]”, 97%; in the series “in vitro [14]”, 111%. In addition, the amount remaining at 1 h, 1 μM came out at 97% in “in vitro [10]”; 81% in the series “in vitro [11]”; 94% in “in vitro [12]”; 84% in “in vitro [13]”; 110% in “in vitro [14]”. The share remaining at 0.25 h, 1 μM in “in vitro [11]” was determined as 113%; in “in vitro [12]” it was 109%; in “in vitro [13]”, 93%; in “in vitro [14]” it was 86%. In [3] (first human column (T = 15 min, head not given), 1 μM, 0.5 mg/mL microsomes), the “% remaining at time T, Human Liver” value was 100%.
Consider `CC(C)NCC(O)COc1cccc2ccccc12` (stereo not drawn) [Propranolol, propranolol, reference compound], for which the share remaining at 0.25 h, 1 μM was 97% in “in vitro [10]”; 34% in the series “in vitro [11]”; 76% in “in vitro [12]”; 0.1% in “in vitro [13]”; 9% in “in vitro [14]”. The fraction remaining at 0.5 h, 1 μM in the series “in vitro [10]” came to 86%; in the series “in vitro [11]” it was 9%; in “in vitro [12]” it was 51%; in the series “in vitro [13]”, 0.1%; in the series “in vitro [14]”, 9%. Also, the fraction remaining at 1 h, 1 μM in “in vitro [10]” is 72%; in the series “in vitro [11]”, 0.5%; in “in vitro [12]”, 24%; in “in vitro [13]” it was 0.1%; in “in vitro [14]”, 4%.
With `CC(=O)NCC(=O)N[C@@H](Cc1ccccc1)C(=O)N1Cc2ccccc2C[C@H]1C(=O)N1[C@H](C(=O)NCC(=O)N[C@@H](CCCCN)C(=O)N2Cc3ccccc3C[C@H]2C(=O)N2[C@H](C(=O)NCC(=O)N[C@@H](Cc3ccccc3)C(=O)N3Cc4ccccc4C[C@H]3C(=O)N3[C@H](C(=O)NCC(=O)N[C@@H](CCCCN)C(=O)N4Cc5ccccc5C[C@H]4C(=O)N[C@@H](CCCCN)C(=O)N[C@@H](CCCCN)C(=O)N[C@@H](CCCCN)C(=O)N[C@@H](CCCCN)C(=O)NCCN)C[C@@H]4CCCC[C@@H]43)C[C@@H]3CCCC[C@@H]32)C[C@@H]2CCCC[C@@H]21` [FKAB-1H, Ac-GF-Tic-Oic-GK-Tic-Oic-GF-Tic-Oic-GK-Tic-KKKK-CONH—CH2—CH2—NH2] (Ac-GF[Tic][Oic]GK[Tic][Oic]GF[Tic][Oic]GK[Tic]KKKK-Ethylenediamine), the “p(MIC) Salmonella typhimurium” value in series [6] (-log(MIC)) was 5.00. Also, the “MIC Salmonella typhimurium” value in series [6] came to 10 µM (≈ 24.8 µg/mL). Further, in [7] (-log(MIC)), the “p(MIC) Staphylococcus aureus ME/GM/TC resistant” value came out at 5.52. In series [7], the “MIC Staphylococcus aureus ME/GM/TC resistant” value was 3.00 µM (≈ 7.45 µg/mL) and the “Minimum Inhibitory Concentration Staphylococcus aureus ME/GM/TC resistant” value came to 3 µM. Besides, the “Actual Bioactivity” value in series [7] (p(MIC) used in Staphylococcus aureus QSAR model) is 5.520. In series [8], the “Actual Bioactivity” value worked out at 5.000, the “MIC Mycobacterium ranae” value was found to be 10.00 µM (≈ 24.8 µg/mL) and the “Minimum Inhibitory Concentration Mycobacterium ranae” value turned out to be 10 µM. Further, the “p(MIC) Bacillus Subtillis” value in [9] (-log(MIC)) is 6.00. Further, the “MIC Bacillus Subtillis” value in [9] came out at 1.00 µM (≈ 2.48 µg/mL). In addition, the amount remaining at 0.25 h, 1 μM in the series “in vitro [10]” was 34%. In the series “in vitro [11]”, the amount remaining at 0.25 h, 1 μM stood at 0%; the amount remaining at 0.5 h, 1 μM was 0%; the share remaining at 1 h, 1 μM was found to be 0%. In the series “in vitro [14]”, the fraction remaining at 0.25 h, 1 μM was determined as 0%; the fraction remaining at 0.5 h, 1 μM was 62%; the fraction remaining at 1 h, 1 μM was 73%.
Turning to `CC(=O)NCC(=O)N[C@@H](Cc1ccccc1)C(=O)N[C@@H](Cc1ccccc1)C(=O)N1C(C(=O)NCC(=O)N[C@@H](CCCCN)C(=O)N[C@@H](Cc2ccccc2)C(=O)N2C(C(=O)NCC(=O)N[C@@H](Cc3ccccc3)C(=O)N[C@@H](Cc3ccccc3)C(=O)N3C(C(=O)NCC(=O)N[C@@H](CCCCN)C(=O)N[C@@H](Cc4ccccc4)C(=O)N[C@@H](CCCCN)C(=O)N[C@@H](CCCCN)C(=O)N[C@@H](CCCCN)C(=O)N[C@@H](CCCCN)C(N)=O)CC4CCCCC43)CC3CCCCC32)CC2CCCCC21` (stereo partly drawn) [FKAB-1Gh, Ac-GF-F-Oic-GK-F-Oic-GF-F-Oic-GK-F-KKKK-CONH2] (Ac-GFF[ξOic]GKF[ξOic]GFF[ξOic]GKFKKKK-NH2), the “MIC Salmonella typhimurium” value in [6] was 10 µM (≈ 23.9 µg/mL). In [7], the “MIC Staphylococcus aureus ME/GM/TC resistant” value was 10.00 µM (≈ 23.9 µg/mL) and the “Minimum Inhibitory Concentration Staphylococcus aureus ME/GM/TC resistant” value is 10 µM. For the same compound, in series [8], the “MIC Mycobacterium ranae” value was 10.00 µM (≈ 23.9 µg/mL) and the “Minimum Inhibitory Concentration Mycobacterium ranae” value was 10 µM. Moreover, the “MIC Bacillus Subtillis” value in [9] came to 1.00 µM (≈ 2.39 µg/mL). In the series on red blood cells, the “% hemolysis 100/25 μM (first value)” value is on record as 27.30%/ and the “% hemolysis 100/25 μM (second value)” value turned out to be 8.9%. The fraction remaining at 0.25 h, 1 μM in the series “in vitro [10]” worked out at 92%. Besides, in the series “in vitro [12]”, the fraction remaining at 0.5 h, 1 μM came to 103% and the share remaining at 1 h, 1 μM came to 60%. For the same compound, the share remaining at 1 h, 1 μM in “in vitro [13]” stood at 0%. Also, in the series “in vitro [14]”, the amount remaining at 0.25 h, 1 μM was determined as 36%; the share remaining at 0.5 h, 1 μM amounted to 71%; the fraction remaining at 1 h, 1 μM came out at 112%.
With `CCNC(=O)[C@H]1O[C@@H](n2cnc3c(N)nc(NCCc4ccc(CCC(=O)O)cc4)nc32)[C@H](O)[C@@H]1O` [CGS-21680, 2-p-[2-carboxyethyl]phenethyl-amino-5′-N-ethylcarboxamide-adenosine, reference compound], in the series with mouse cutaneous injury, the “CT50 (wound half-closure time)” value was 5.4 days, the “wound closure Day 3” value is given as 41.1%, the “wound closure Day 5” value is given as 54.6% and the “wound closure Day 7” value stood at 70.6%. Moreover, in the series with mouse cutaneous injury, the “wound closure Day 9” value stood at 77.6% and the “wound closure Day 11” value turned out to be 84.3%.

Source of the values: patent US20120197004A1, “NOVEL ANTI-MICROBIAL PEPTIDOMIMETIC COMPOUNDS AND METHODS TO CALCULATE ANTI-MICROBIAL ACTIVITY” (priority 2006, published 2012).
